Here are results for 98 compounds from the RepoRT retention time repository (doi:10.1016/j.chroma.2015.11.014).

Each structure is given as a SMILES string.

The nature of this data set: RP, Agilent ZORBAX Eclipse Plus C18, 150 × 2.1 mm, 3.5 µm, 40 °C, 0.3 mL/min, estimated dead time 1.1 min; A: water + 0.1% formic acid; B: acetonitrile + 0.1% formic acid; gradient (min/%B) 0/2 1/2 2/20 16.5/98 22/98. To be noted: stereoisomer not certain.

In the case of `CCC1(C2OC(C3OC(O)(CO)C(C)CC3C)CC2C)CCC(C2(C)CCC3(CC(O)C(C)C(C(C)C(OC)C(C)C(=O)O)O3)O2)O1` (stereo not drawn), the LC retention time is 20.4 min.

For the compound `CN(C)C(=N)N=C(N)N`, the LC retention time was 1.52 min.

`CN(C)CCC=C1c2ccccc2CCc2ccccc21`: the LC retention time was 8.71 min.

Consider `COc1cc(NS(=O)(=O)c2ccc(N)cc2)nc(OC)n1`, for which the LC retention time was 8.09 min.

Turning to `Cc1c[nH]c(=O)[nH]c1=O`, the LC retention time is 3.23 min.

On to `CC(C)(C)NCC(O)c1ccc(O)c(CO)c1` (stereo not drawn), for which the LC retention time was 4.69 min.

Regarding `CCOC(=O)C(C#N)=C(c1ccccc1)c1ccccc1`, the LC retention time was 13.6 min.

Turning to `COc1ccc2nc(S(=O)Cc3ncc(C)c(OC)c3C)[nH]c2c1` (stereo not drawn), the LC retention time was 6.46 min.

For `c1ccc(COCCC[P+](c2ccccc2)(c2ccccc2)c2ccccc2)cc1`, the LC retention time was 9.73 min.

With `C[P+](c1ccccc1)(c1ccccc1)c1ccccc1`, the LC retention time is 7.19 min.

Take `CC(CN1c2ccccc2Sc2ccccc21)N(C)C` (stereo not drawn): the LC retention time is 8 min.

On to `CC(C)CC(C)Nc1ccc(Nc2ccccc2)cc1` (stereo not drawn), for which the LC retention time is 9.19 min.

In the case of `COc1ccc2nc(SCc3ncc(C(=O)O)c(OC)c3C)[nH]c2c1`, the LC retention time is 5.75 min.

On to `CCCCCCCCCCC(C(=O)OCCCCCC)[N+](C)(C)Cc1ccccc1` (stereo not drawn), for which the LC retention time is 13.6 min.

Turning to `CN(C)c1ccc(C(c2ccccc2)c2ccc(N(C)C)cc2)cc1`, the LC retention time was 9.97 min.

In the case of `CCC(C)C(=O)OC1CC(O)C=C2C=CC(C)C(CCC(O)CC(O)CC(=O)O)C21` (stereo not drawn), the LC retention time was 8.64 min.

As to `COc1cc(N)nc(OC)n1`, the LC retention time was 4.66 min.

On to `CC(C)(C)CC(C)(C)c1ccc(O)c(-n2nc3ccccc3n2)c1`, for which the LC retention time was 19.6 min.

In the case of `CCCCCCCC[N+](C)(C)Cc1ccccc1`, the LC retention time was 9.03 min.

For `CCOC(=O)Nc1cccc(N)c1C`, the LC retention time was 5.08 min.

`NC(=O)N1c2ccccc2CC(O)c2ccccc21` (stereo not drawn): the LC retention time is 7.19 min.

For `Nc1ccccc1C[P+](c1ccccc1)(c1ccccc1)c1ccccc1`, the LC retention time was 8.43 min.

On to `O=C(O)c1cccc2c(=O)c3ccccc3[nH]c12`, for which the LC retention time was 8.82 min.

`Cn1c(=O)c2c(ncn2C)n(C)c1=O`: the LC retention time is 5.51 min.

Turning to `CCOc1ccccc1NC(=O)C(=O)Nc1ccccc1CC`, the LC retention time was 15.4 min.

Regarding `CCCCCCCCCCC(C(=O)c1ccc(OC)cc1)[N+](C)(C)C` (stereo not drawn), the LC retention time is 11.3 min.

Consider `CN(C)CC1CCCCC1(O)c1cccc(O)c1` (stereo not drawn), for which the LC retention time was 5.39 min.

As for `O=C(Nc1ccccc1)Nc1ccccc1`, the LC retention time was 10.8 min.

With `N=C(N)c1ccc(OCCCCCCOc2ccc(C(=N)N)cc2)cc1`, the LC retention time is 5.92 min.

For `CN(CC=CC#CC(C)(C)C)Cc1cccc2ccccc12`, the LC retention time was 9.65 min.

For the compound `Oc1ccccc1-c1nc2ccccc2[nH]1`, the LC retention time is 6.22 min.

Regarding `CCOc1cc(CC(=O)NC(CC(C)C)c2ccccc2N2CCCCC2)ccc1C(=O)O` (stereo not drawn), the LC retention time is 10.3 min.

In the case of `CC(C)(C)P(C(C)(C)C)C(C)(C)C`, the LC retention time is 5.22 min.

On to `COCC(C)N(C(=O)CS(=O)(=O)O)c1c(C)csc1C` (stereo not drawn), for which the LC retention time was 7.04 min.

As to `Nc1cccc2c1CN(C1CCC(=O)NC1=O)C2=O` (stereo not drawn), the LC retention time was 5.24 min.

For `OC(c1ccccc1)(c1ccccc1)C1CCNCC1`, the LC retention time was 6.64 min.

As to `Nc1ccc(S(=O)(=O)Nc2ncccn2)cc1`, the LC retention time is 5.24 min.

As to `CCOC(=O)Nc1ccc(C)c(NC(=O)OCC)c1`, the LC retention time was 10.1 min.

In the case of `O=S(=O)([O-])CCCC[P+](c1ccccc1)(c1ccccc1)c1ccccc1`, the LC retention time was 7.14 min.

Consider `COc1cc2c(cc1OC)C(=O)C(CC1CCN(Cc3ccccc3)CC1)C2` (stereo not drawn), for which the LC retention time is 7.43 min.

For the compound `CCCOP(=O)(OCCC)OCCC`, the LC retention time is 10.9 min.

As for `CC(C)NCC(O)c1ccc(NS(C)(=O)=O)cc1` (stereo not drawn), the LC retention time is 4.58 min.

Turning to `COC(=O)Nc1cccc(N)c1`, the LC retention time is 4.29 min.

Take `C[N+](C)(CCOc1ccccc1)Cc1ccccc1`: the LC retention time was 7.14 min.

For `O=c1[nH]cnc2[nH]ncc12`, the LC retention time was 3.15 min.

On to `Cc1ccnc2c1NC(=O)c1cccnc1N2C1CC1`, for which the LC retention time was 7.3 min.

Turning to `COCC(=O)N(c1c(C)cccc1C)C(C)C(=O)OC` (stereo not drawn), the LC retention time was 10.2 min.

Consider `c1ccc2sc(SSN3CCOCC3)nc2c1`, for which the LC retention time was 13.8 min.

On to `COc1ccc2c3c1OC1C(OC(C)=O)C=CC4C(C2)N(C)CCC341` (stereo not drawn), for which the LC retention time is 6.21 min.

For the compound `c1ccc([P+](CCC2OCCCO2)(c2ccccc2)c2ccccc2)cc1`, the LC retention time was 7.98 min.

In the case of `Nc1nc2ccccc2[nH]1`, the LC retention time was 4.79 min.

With `CC(C)NCC(O)COc1ccc(C(O)C(N)=O)cc1` (stereo not drawn), the LC retention time is 3.21 min.

Consider `CC(=O)Nc1ccc(O)cc1`, for which the LC retention time is 5.02 min.

Turning to `O=C(O)c1c2ccccc2nc2ccccc12`, the LC retention time is 4.66 min.

As to `CC[N+](CC)(CC)Cc1ccccc1`, the LC retention time was 5.09 min.

Take `CC1=CC(=O)NS(=O)(=O)O1`: the LC retention time was 4.12 min.

Turning to `O=C1OCCOC(=O)c2ccc(cc2)C(=O)OCCOC(=O)c2ccc(cc2)C(=O)OCCOC(=O)c2ccc1cc2`, the LC retention time was 14.5 min.

On to `CC12CCC3c4ccc(O)cc4CCC3C1CCC2O` (stereo not drawn), for which the LC retention time is 10.4 min.

Consider `CC(Cn1cnc2c(N)ncnc21)OCP(=O)(O)O` (stereo not drawn), for which the LC retention time was 2.77 min.

Consider `O=S(=O)(O)c1ccc2nc(-c3ccccc3)[nH]c2c1`, for which the LC retention time was 5.04 min.

Turning to `CCN(CC)CC(=O)Nc1c(C)cccc1C`, the LC retention time is 5.77 min.

On to `CCCC1OC2CC3C4CCC5=CC(=O)C=CC5(C)C4C(O)CC3(C)C2(C(=O)CO)O1` (stereo not drawn), for which the LC retention time was 11 min.

Consider `CC(=O)Nc1cc(N)cc(C(=O)O)c1`, for which the LC retention time was 4.46 min.

For `OCCN(CCO)c1nc(N2CCCCC2)c2nc(N(CCO)CCO)nc(N3CCCCC3)c2n1`, the LC retention time was 7.67 min.

With `[O-]N(O)c1ccc(C[P+](c2ccccc2)(c2ccccc2)c2ccccc2)cc1`, the LC retention time was 8.52 min.

For `Nc1nc(N)c2nc(-c3ccccc3)c(N)nc2n1`, the LC retention time was 5.2 min.

In the case of `O=[N+]([O-])c1ccc(O)c([N+](=O)[O-])c1`, the LC retention time was 9.21 min.

For `CCCC[N+](CCCC)(CCCC)Cc1ccccc1`, the LC retention time was 9.13 min.

Turning to `CC(C)(C)CC(C)(C)c1ccc(OCCOCC[N+](C)(C)Cc2ccccc2)cc1`, the LC retention time is 11.5 min.

`O=c1[nH]c(=O)c2[nH]c(=O)[nH]c2[nH]1`: the LC retention time is 2.08 min.

In the case of `CCCC(=O)Nc1ccc(OCC(O)CNC(C)C)c(C(C)=O)c1` (stereo not drawn), the LC retention time was 5.96 min.

On to `CCC(C)(C)C(=O)OC1CC(C)C=C2C=CC(C)C(CCC3CC(O)CC(=O)O3)C21` (stereo not drawn), for which the LC retention time is 15.4 min.

As for `CC12CCC3c4ccc(O)cc4CCC3C1CCC2=O` (stereo not drawn), the LC retention time was 11.2 min.

`CC(=O)Nc1ccc(S(=O)(=O)Nc2cc(C)on2)cc1`: the LC retention time is 7.41 min.

For `C#CC1(O)CCC2C3CCC4=C(CCC(=O)C4)C3CCC21C` (stereo not drawn), the LC retention time is 11.1 min.

Take `NC(=O)N1c2ccccc2C=Cc2ccc(O)cc21`: the LC retention time was 7.92 min.

For `NC(=O)N1c2ccccc2C2OC2c2ccccc21` (stereo not drawn), the LC retention time is 7.59 min.

For the compound `O=c1[nH]cnc2c1cnn2C1OC(CO)C(O)C1O` (stereo not drawn), the LC retention time was 4.31 min.

As to `CNC(=O)ON=C(C)C(C)SC` (stereo not drawn), the LC retention time was 7.75 min.

`CCCC(=NOCC)C1=C(O)CC(CC(C)SCC)CC1=O` (stereo not drawn): the LC retention time was 16.1 min.

In the case of `NC(=O)N1c2ccccc2C(O)C(O)c2ccccc21` (stereo not drawn), the LC retention time is 6.66 min.

As for `CC(O)C(=O)N(C)c1ccccc1` (stereo not drawn), the LC retention time is 6.76 min.

On to `CCCCCCCCCC[N+](C)(C)CCCCCCCC`, for which the LC retention time was 12.4 min.

Take `Cc1ccc(-c2nc3ccccc3[nH]2)cc1`: the LC retention time is 6.06 min.

As to `NC1=NC(O)c2ncn(COCCO)c2N1` (stereo not drawn), the LC retention time is 3.12 min.

`CCC1OC(=O)C(C)C(OC2CC(C)(OC)C(O)C(C)O2)C(C)C(OC2OC(C)CC(N(C)C)C2O)C(C)(O)CC(C)CN(C)C(C)C(O)C1(C)O` (stereo not drawn): the LC retention time is 6.25 min.

Take `CCC1OC(=O)C(C)C(OC2CC(C)(OC)C(O)C(C)O2)C(C)C(OC2OC(C)CC(N(C)C)C2O)C(C)(OC)CC(C)C(=O)C(C)C(O)C1(C)O` (stereo not drawn): the LC retention time is 8.86 min.

For `Cc1cc(C)nc(NS(=O)(=O)c2ccc(N)cc2)n1`, the LC retention time is 6.12 min.

Turning to `CC(=O)OCC[N+](C)(C)C`, the LC retention time is 2.06 min.

Consider `Cc1cc(C2CC2)nc(Nc2ccccc2)n1`, for which the LC retention time was 10.8 min.

Regarding `CN1C(C(=O)Nc2ccccn2)=C(O)c2sccc2S1(=O)=O`, the LC retention time is 7.36 min.

Take `CCCCCCCCCCCCOCC[N+](C)(C)Cc1ccccc1`: the LC retention time was 12.7 min.

`CN1C(C(=O)Nc2ccccn2)=C(O)c2ccccc2S1(=O)=O`: the LC retention time was 9.53 min.

As for `C#CC1(O)CCC2C3CCC4=CC(=O)CCC4(C)C3CCC21C` (stereo not drawn), the LC retention time is 11.7 min.

As for `O=C1CC2(CCCCC2)CN1`, the LC retention time was 7.59 min.

Regarding `O=P(O)(O)c1ccccc1`, the LC retention time is 3.09 min.

In the case of `Nc1nc(NC2CC2)c2ncn(C3C=CC(CO)C3)c2n1` (stereo not drawn), the LC retention time was 5.09 min.

In the case of `CC(C)NCC(O)COc1cccc2[nH]c3ccccc3c12` (stereo not drawn), the LC retention time was 6.88 min.
